Measured values as given in ChEMBL document CHEMBL1201862, “PubChem BioAssay data set” (2004).
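Cells were grown in 96-well plates and exposed to each compound for 48 hours at five concentrations; endpoints were interpolated linearly between bracketing concentrations, or set to the highest concentration if not reached. Here, GI50 denotes the concentration required for 50% inhibition of growth.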 Calls of active or inactive are those of the source. Cut-off read from the data, not from the text of the source: active = GI50 up to about 1.1 µM and inactive = higher.

Columns and labels:
Test in all cases: growth of human tumour cells (NCI), 48 h
SR = system: SR
MDA-MB-435 = system: MDA-MB-435
IGROV-1 = system: IGROV-1
SK-MEL-2 = system: SK-MEL-2
DU-145 = system: DU-145
NCI-H460 = system: NCI-H460
PC-3 = system: PC-3
HCT-116 = system: HCT-116
MOLT-4 = system: MOLT-4
MDA-N = system: MDA-N
SW-620 = system: SW-620
SK-MEL-28 = system: SK-MEL-28
HOP-92 = system: HOP-92
786-0 = system: 786-0
SF-268 = system: SF-268
SN12C = system: SN12C
M14 = system: M14
LOX IMVI = system: LOX IMVI
RXF 393 = system: RXF 393
MCF7 = system: MCF7

SMILES	GI50 (SR)	GI50 (MDA-MB-435)	GI50 (IGROV-1)	GI50 (SK-MEL-2)	GI50 (DU-145)	GI50 (NCI-H460)	GI50 (PC-3)	GI50 (HCT-116)	GI50 (MOLT-4)	GI50 (MDA-N)	GI50 (SW-620)	GI50 (SK-MEL-28)	GI50 (HOP-92)	GI50 (786-0)	GI50 (SF-268)	GI50 (SN12C)	GI50 (M14)	GI50 (LOX IMVI)	GI50 (RXF 393)	GI50 (MCF7)
CN(C)CCNC(=O)c1ccc(Cl)c2cc3ccccc3nc12	0.339 µM (active)	0.951 µM (active)	0.708 µM (active)	2.01 µM (inactive)	0.991 µM (active)	0.218 µM (active)	0.807 µM (active)	0.408 µM (active)	0.265 µM (active)	0.889 µM (active)	0.453 µM (active)	1.82 µM (inactive)	0.187 µM (active)	0.362 µM (active)	0.962 µM (active)	0.577 µM (active)	1.23 µM (inactive)	0.23 µM (active)	1.07 µM (active)	0.381 µM (active)
CCN(CC)CCC(=O)N1C/C(=C/c2ccccc2)C(=O)/C(=C\c2ccccc2)C1	0.344 µM (active)	1.7 µM (inactive)	3.03 µM (inactive)	2.19 µM (inactive)	3.15 µM (inactive)	3.24 µM (inactive)	1.06 µM (active)	0.321 µM (active)	0.28 µM (active)	0.865 µM (active)	0.195 µM (active)	1.82 µM (inactive)	4.52 µM (inactive)	2.16 µM (inactive)	2.04 µM (inactive)	1.3 µM (inactive)	1.52 µM (inactive)	0.415 µM (active)	1.51 µM (inactive)	0.372 µM (active)
Nc1ncnc2c1nnn2C1CCC(CP(=O)(O)O)C1 (stereo not given)	> 100 µM (inactive)	> 100 µM (inactive)	> 100 µM (inactive)	> 100 µM (inactive)	> 100 µM (inactive)	> 100 µM (inactive)	> 100 µM (inactive)	> 100 µM (inactive)	> 100 µM (inactive)	> 100 µM (inactive)	> 100 µM (inactive)	> 100 µM (inactive)	> 100 µM (inactive)	> 100 µM (inactive)	> 100 µM (inactive)	> 100 µM (inactive)	> 100 µM (inactive)	> 100 µM (inactive)	> 100 µM (inactive)	> 100 µM (inactive)
COc1ccc(Nc2c(C#N)c3n(c4ccccc24)c2ccccc2[n+]3C)cc1OC	6.46 µM (inactive)	3.73 µM (inactive)	3.58 µM (inactive)	3.86 µM (inactive)	2.81 µM (inactive)	1.93 µM (inactive)	2.33 µM (inactive)	1.61 µM (inactive)	1.68 µM (inactive)	2.7 µM (inactive)	2.44 µM (inactive)	4.43 µM (inactive)	9.44 µM (inactive)	2.12 µM (inactive)	1.76 µM (inactive)	1.27 µM (inactive)	2.94 µM (inactive)	1.9 µM (inactive)	2.82 µM (inactive)	1.99 µM (inactive)
CCCN(C(=O)c1c(Cl)nnc(Cl)c1C(=O)c1cc(Cl)nnc1Cl)c1cc(Cl)nnc1Cl	3.08 µM (inactive)	6.03 µM (inactive)	7.52 µM (inactive)	14.4 µM (inactive)	7.91 µM (inactive)	20.9 µM (inactive)	6.61 µM (inactive)	6.87 µM (inactive)	3.36 µM (inactive)	6.7 µM (inactive)	6.67 µM (inactive)	12.9 µM (inactive)	18.4 µM (inactive)	5.46 µM (inactive)	4.35 µM (inactive)	12.4 µM (inactive)	16.1 µM (inactive)	5.47 µM (inactive)	2.86 µM (inactive)	4.49 µM (inactive)
O=C(Oc1cc(=O)c(OC(=O)c2ccccc2)co1)c1ccccc1	31.7 µM (inactive)	> 100 µM (inactive)	> 100 µM (inactive)	> 100 µM (inactive)	> 100 µM (inactive)	> 100 µM (inactive)	91 µM (inactive)	65 µM (inactive)	33.3 µM (inactive)	> 100 µM (inactive)	> 100 µM (inactive)	55.6 µM (inactive)	> 100 µM (inactive)	49.4 µM (inactive)	90.4 µM (inactive)	45.8 µM (inactive)	> 100 µM (inactive)	36.9 µM (inactive)	72.9 µM (inactive)	> 100 µM (inactive)
CN(C(=O)C12C3C4(C(=O)O)C1(C(=O)N(C)C(C)(C)C)C1C2(C(=O)O)C3(C(=O)N(C)C(C)(C)C)C14C(=O)N(C)C(C)(C)C)C(C)(C)C (stereo not given)	> 100 µM (inactive)	> 100 µM (inactive)	> 100 µM (inactive)	> 100 µM (inactive)	> 100 µM (inactive)	> 100 µM (inactive)	> 100 µM (inactive)	> 100 µM (inactive)	> 100 µM (inactive)	> 100 µM (inactive)	> 100 µM (inactive)	> 100 µM (inactive)	> 100 µM (inactive)	> 100 µM (inactive)	> 100 µM (inactive)	> 100 µM (inactive)	> 100 µM (inactive)	> 100 µM (inactive)	> 100 µM (inactive)	> 100 µM (inactive)
CN1C(=O)N(c2ccccc2)C2(CCN(CC3COc4ccccc4O3)CC2)C1=O (stereo not given)	> 100 µM (inactive)	> 100 µM (inactive)	> 100 µM (inactive)	> 100 µM (inactive)	> 100 µM (inactive)	96.2 µM (inactive)	> 100 µM (inactive)	96.8 µM (inactive)	65.9 µM (inactive)	> 100 µM (inactive)	4.5 µM (inactive)	> 100 µM (inactive)	66.5 µM (inactive)	85.3 µM (inactive)	> 100 µM (inactive)	> 100 µM (inactive)	> 100 µM (inactive)	> 100 µM (inactive)	> 100 µM (inactive)	> 100 µM (inactive)
COc1cc2c(c(OC)c1OC)C(=O)[C@H](Br)[C@H]2NC(=O)NCCCl	76.2 µM (inactive)	40.5 µM (inactive)	68.1 µM (inactive)	> 100 µM (inactive)	> 100 µM (inactive)	80.4 µM (inactive)	> 100 µM (inactive)	82.6 µM (inactive)	46.7 µM (inactive)	35.2 µM (inactive)	> 100 µM (inactive)	> 100 µM (inactive)	> 100 µM (inactive)	> 100 µM (inactive)	49.9 µM (inactive)	> 100 µM (inactive)	86.1 µM (inactive)	47.1 µM (inactive)	97.1 µM (inactive)	> 100 µM (inactive)
COC1=CC(=O)c2c(O)c3c(c(O)c2C1=O)C=C(C)OC3O (stereo not given)	1.84 µM (inactive)	1.25 µM (inactive)	1.98 µM (inactive)	1.96 µM (inactive)	1.01 µM (active)	1.35 µM (inactive)	2.64 µM (inactive)	0.569 µM (active)	1.58 µM (inactive)	1.66 µM (inactive)	0.828 µM (active)	1.27 µM (inactive)	6.84 µM (inactive)	3.24 µM (inactive)	2.18 µM (inactive)	0.877 µM (active)	0.281 µM (active)	0.597 µM (active)	1.05 µM (active)	0.39 µM (active)
CC1(C)CC2(C)ON=C(c3ccccc3)N2c2ccccc2N1 (stereo not given)	34.5 µM (inactive)	19.8 µM (inactive)	32.1 µM (inactive)	20.9 µM (inactive)	33.1 µM (inactive)	20.9 µM (inactive)	14.8 µM (inactive)	14.8 µM (inactive)	21.6 µM (inactive)	21.2 µM (inactive)	36.5 µM (inactive)	23 µM (inactive)	21.6 µM (inactive)	23.3 µM (inactive)	22.1 µM (inactive)	30.3 µM (inactive)	19.6 µM (inactive)	17.3 µM (inactive)	20.8 µM (inactive)	22.2 µM (inactive)
O=N/N=c1\o[n-][n+](CCc2ccccc2)c1Cc1/c(=N/N=O)o[n-][n+]1CCc1ccccc1	31.2 µM (inactive)	39.7 µM (inactive)	25.1 µM (inactive)	29.6 µM (inactive)	55.5 µM (inactive)	33.7 µM (inactive)	33.8 µM (inactive)	50.1 µM (inactive)	> 100 µM (inactive)	80.9 µM (inactive)	89.7 µM (inactive)	55.6 µM (inactive)	27.1 µM (inactive)	20.2 µM (inactive)	32 µM (inactive)	34.5 µM (inactive)	89.5 µM (inactive)	91.4 µM (inactive)	39.2 µM (inactive)	70 µM (inactive)
COc1cc(NCc2ccc3nc(N)nc(N)c3c2C)cc(OC)c1OC	0.000359 µM (active)	0.0365 µM (active)	0.0316 µM (active)	17.9 µM (inactive)	0.00102 µM (active)	0.025 µM (active)	0.000383 µM (active)	0.0352 µM (active)	0.025 µM (active)	0.0002 µM (active)	0.025 µM (active)	0.313 µM (active)	0.75 µM (active)	0.00106 µM (active)	0.0258 µM (active)	0.0316 µM (active)	0.00024 µM (active)	0.025 µM (active)	2.15 µM (inactive)	0.0308 µM (active)
Cc1cn(C2CC(O)C(CO)O2)c(=O)[nH]c1=O (stereo not given)	> 2020 µM (inactive)	4940 µM (inactive)	> 4900 µM (inactive)	3880 µM (inactive)	> 4450 µM (inactive)	655 µM (inactive)	> 5000 µM (inactive)	1930 µM (inactive)	386 µM (inactive)	3780 µM (inactive)	2130 µM (inactive)	1360 µM (inactive)	3020 µM (inactive)	1160 µM (inactive)	2280 µM (inactive)	1220 µM (inactive)	1850 µM (inactive)	1310 µM (inactive)	2510 µM (inactive)	325 µM (inactive)
